Measurements taken from PubChem BioAssay (NCI).
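Briefly, cells in 96-well plates were exposed to five compound concentrations for 48 h, and endpoints were estimated by linear interpolation. The concentration for 50% growth inhibition is given as GI50. TGI: total growth inhibition.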

Key:
Assay in all cases: DTP human tumour cell line panel, 48 h
UO-31 renal = tested on: UO-31 renal
HT29 colon = tested on: HT29 colon
NCI-H23 lung = tested on: NCI-H23 lung
HCC-2998 colon = tested on: HCC-2998 colon
MDA-MB-231 breast = tested on: MDA-MB-231 breast
SK-MEL-28 melanoma = tested on: SK-MEL-28 melanoma
UACC-257 melanoma = tested on: UACC-257 melanoma
SR leukemia = tested on: SR leukemia
NCI/ADR-RES ovarian = tested on: NCI/ADR-RES ovarian
SK-MEL-2 melanoma = tested on: SK-MEL-2 melanoma
OVCAR-4 ovarian = tested on: OVCAR-4 ovarian
ACHN renal = tested on: ACHN renal
OVCAR-8 ovarian = tested on: OVCAR-8 ovarian
HOP-92 NSCLC = tested on: HOP-92 NSCLC
CAKI-1 renal = tested on: CAKI-1 renal
RXF 393 renal = tested on: RXF 393 renal
CCRF-CEM leukemia = tested on: CCRF-CEM leukemia
NCI-H522 lung = tested on: NCI-H522 lung
SK-OV-3 ovarian = tested on: SK-OV-3 ovarian
OVCAR-5 ovarian = tested on: OVCAR-5 ovarian
DU-145 prostate = tested on: DU-145 prostate
MDA-MB-435 = tested on: MDA-MB-435
PC-3 prostate = tested on: PC-3 prostate
COLO 205 colon = tested on: COLO 205 colon
M14 melanoma = tested on: M14 melanoma
T-47D breast = tested on: T-47D breast
HCT-15 colon = tested on: HCT-15 colon
SF-268 CNS = tested on: SF-268 CNS
TK-10 renal = tested on: TK-10 renal
SF-539 CNS = tested on: SF-539 CNS
SK-MEL-5 melanoma = tested on: SK-MEL-5 melanoma
EKVX NSCLC = tested on: EKVX NSCLC
BT-549 breast = tested on: BT-549 breast
786-0 renal = tested on: 786-0 renal
U251 CNS = tested on: U251 CNS
HCT-116 colon = tested on: HCT-116 colon
MOLT-4 leukemia = tested on: MOLT-4 leukemia
UACC-62 melanoma = tested on: UACC-62 melanoma
SNB-75 CNS = tested on: SNB-75 CNS
NCI-H226 lung = tested on: NCI-H226 lung
SNB-19 CNS = tested on: SNB-19 CNS
LOX IMVI melanoma = tested on: LOX IMVI melanoma
HL-60(TB) leukemia = tested on: HL-60(TB) leukemia
KM12 colon = tested on: KM12 colon
SW-620 colon = tested on: SW-620 colon
RPMI-8226 leukemia = tested on: RPMI-8226 leukemia
A549 NSCLC = tested on: A549 NSCLC
K-562 leukemia = tested on: K-562 leukemia
SF-295 CNS = tested on: SF-295 CNS
MCF7 breast = tested on: MCF7 breast
NCI-H460 lung = tested on: NCI-H460 lung
SN12C renal = tested on: SN12C renal
OVCAR-3 ovarian = tested on: OVCAR-3 ovarian
HOP-62 NSCLC = tested on: HOP-62 NSCLC

For `CCC(=O)c1c(C(F)(F)F)n([O-])c2ccc(C)cc2[n+]1=O`, the GI50 (UO-31 renal) was 1.48 µM, the TGI (UO-31 renal) was greater than 50 µM and the GI50 (HT29 colon) was 14.1 µM. It also gave a TGI (HT29 colon) greater than 50 µM, a GI50 (NCI-H23 lung) of 1.2 µM and a TGI (NCI-H23 lung) of 6.1 µM. For the same compound, the GI50 (HCC-2998 colon) was 5.92 µM, the TGI (HCC-2998 colon) was 21.9 µM and the GI50 (MDA-MB-231 breast) was 12.1 µM. For the same compound, the TGI (MDA-MB-231 breast) was 37.9 µM, the GI50 (SK-MEL-28 melanoma) was 28.2 µM and the TGI (SK-MEL-28 melanoma) was greater than 50 µM. For the same compound, the GI50 (UACC-257 melanoma) was 11.3 µM, the TGI (UACC-257 melanoma) was greater than 50 µM and the GI50 (SR leukemia) was 0.675 µM. The TGI (SR leukemia) was greater than 50 µM, the GI50 (NCI/ADR-RES ovarian) was 6.14 µM and the TGI (NCI/ADR-RES ovarian) was 36.5 µM. The GI50 (SK-MEL-2 melanoma) was 8.35 µM, the TGI (SK-MEL-2 melanoma) was greater than 50 µM and the GI50 (OVCAR-4 ovarian) was 24 µM. It also gave a TGI (OVCAR-4 ovarian) greater than 50 µM, a GI50 (ACHN renal) of 5.02 µM and a TGI (ACHN renal) of 14.2 µM. The GI50 (OVCAR-8 ovarian) was 2.83 µM, the TGI (OVCAR-8 ovarian) was greater than 50 µM and the GI50 (HOP-92 NSCLC) was 8.69 µM. It also gave a TGI (HOP-92 NSCLC) greater than 50 µM, a GI50 (CAKI-1 renal) of 5.78 µM and a TGI (CAKI-1 renal) of 16.2 µM. The GI50 (RXF 393 renal) was 23.4 µM, the TGI (RXF 393 renal) was greater than 50 µM and the GI50 (CCRF-CEM leukemia) was 18.2 µM. It also gave a TGI (CCRF-CEM leukemia) greater than 50 µM, a GI50 (NCI-H522 lung) of 1.62 µM and a TGI (NCI-H522 lung) of 11.2 µM. It also gave a GI50 (SK-OV-3 ovarian) of 8.45 µM, a TGI (SK-OV-3 ovarian) of 49.3 µM and a GI50 (OVCAR-5 ovarian) of 3.43 µM. It also gave a TGI (OVCAR-5 ovarian) of 41.6 µM, a GI50 (DU-145 prostate) of 5.99 µM and a TGI (DU-145 prostate) of 16.6 µM. The GI50 (MDA-MB-435) was 9.53 µM, the TGI (MDA-MB-435) was 40.8 µM and the GI50 (PC-3 prostate) was 2.27 µM. For the same compound, the TGI (PC-3 prostate) was 15.1 µM, the GI50 (COLO 205 colon) was 5.24 µM and the TGI (COLO 205 colon) was 19.6 µM. It also gave a GI50 (M14 melanoma) of 15.3 µM, a TGI (M14 melanoma) greater than 50 µM and a GI50 (T-47D breast) of 6.51 µM. It also gave a TGI (T-47D breast) of 26.8 µM, a GI50 (HCT-15 colon) of 3.05 µM and a TGI (HCT-15 colon) greater than 50 µM. The GI50 (SF-268 CNS) was greater than 50 µM, the TGI (SF-268 CNS) was greater than 50 µM and the GI50 (TK-10 renal) was 0.812 µM. For the same compound, the TGI (TK-10 renal) was 6.61 µM, the GI50 (SF-539 CNS) was 9.19 µM and the TGI (SF-539 CNS) was 25.3 µM. The GI50 (SK-MEL-5 melanoma) was 4.33 µM, the TGI (SK-MEL-5 melanoma) was 13.9 µM and the GI50 (EKVX NSCLC) was 1.52 µM. The TGI (EKVX NSCLC) was 6.09 µM, the GI50 (BT-549 breast) was 1.35 µM and the TGI (BT-549 breast) was 5.43 µM. The GI50 (786-0 renal) was 22 µM, the TGI (786-0 renal) was greater than 50 µM and the GI50 (U251 CNS) was 10.7 µM. It also gave a TGI (U251 CNS) greater than 50 µM, a GI50 (HCT-116 colon) of 13.8 µM and a TGI (HCT-116 colon) greater than 50 µM. It also gave a GI50 (MOLT-4 leukemia) of 14.1 µM, a TGI (MOLT-4 leukemia) greater than 50 µM and a GI50 (UACC-62 melanoma) of 7.7 µM. The TGI (UACC-62 melanoma) was 28.9 µM, the GI50 (SNB-75 CNS) was 15.9 µM and the TGI (SNB-75 CNS) was greater than 50 µM. The GI50 (NCI-H226 lung) was 10.8 µM, the TGI (NCI-H226 lung) was greater than 50 µM and the GI50 (SNB-19 CNS) was 15.2 µM. The TGI (SNB-19 CNS) was greater than 50 µM, the GI50 (LOX IMVI melanoma) was 7.47 µM and the TGI (LOX IMVI melanoma) was 17.9 µM. It also gave a GI50 (HL-60(TB) leukemia) of 4.82 µM, a TGI (HL-60(TB) leukemia) greater than 50 µM and a GI50 (KM12 colon) of 4.99 µM. The TGI (KM12 colon) was 14.9 µM, the GI50 (SW-620 colon) was 11.7 µM and the TGI (SW-620 colon) was greater than 50 µM. It also gave a GI50 (RPMI-8226 leukemia) of 12.4 µM, a TGI (RPMI-8226 leukemia) greater than 50 µM and a GI50 (A549 NSCLC) of 11.3 µM. It also gave a TGI (A549 NSCLC) greater than 50 µM, a GI50 (K-562 leukemia) of 3.4 µM and a TGI (K-562 leukemia) greater than 50 µM. For the same compound, the GI50 (SF-295 CNS) was 3.93 µM, the TGI (SF-295 CNS) was 15.8 µM and the GI50 (MCF7 breast) was 6.29 µM. For the same compound, the TGI (MCF7 breast) was 40.5 µM, the GI50 (NCI-H460 lung) was 3.95 µM and the TGI (NCI-H460 lung) was 18.3 µM. For the same compound, the GI50 (SN12C renal) was 7.39 µM, the TGI (SN12C renal) was 19.8 µM and the GI50 (OVCAR-3 ovarian) was 3.88 µM. For the same compound, the TGI (OVCAR-3 ovarian) was 15 µM, the GI50 (HOP-62 NSCLC) was 11.3 µM and the TGI (HOP-62 NSCLC) was greater than 50 µM.
